Measured values: US6518278B1, “Carcinostatic substance for compatible administration, process of administrating same and process of rapidly inspecting same” (Debio Pharm S.A., priority 1994, dated 2003)
“And” between values parts separate entries of the source, which are not always exact repeats. Identical values can stand only once. “Also recorded” adds a separate entry of the source.

Tested on: human leutecyte strain cell (RPMI-8402)
Experiment: Extinction effect of compatible administration of l-OHP and a compatible agent on tumor cells (compatible efficiency OE)
Format: cell-based
Details: for Compatible Effects of l-OHP and Compatible Agent, Simultaneous Administration: both added day 1
Description: In the evaluation of the extinction effect of the tumor cells of the respective combinations, a pure extinction effect produced by the compatible administration of the compatible agent and the l-OHP is calculated by subtracting an extinction effect of a control (no carcinostatic substance is employed).
The compatibly administration effect is calculated by employing an Equation (1) described later. When the value (%) calculated by this Equation is between 85 and 115%, the compatible administration effect is evaluated to be an additive effect. When the value is below 85%, it is evaluated to be below the additive effect. When the value is over 115%, it is evaluated to be a synergistic effect, ±15% is a reliability limit or a measurement error.
A target tumor cell was a human leutecyte strain cell (RPMI-8402 of Gibuko K.K.). To these cells was added blood serum of a cow embryo (15%, Gibuko K.K.) to prepare a cell floating liquid of which the number of the cells was 10^6/ml in a cultivation bottle (tradename; Sumiron of Sumitomo Bakelite o., Ltd.) having a volume of 6 ml. A plenty of the cultivation bottles having the cell floating liquid therein were prepared, and the following experiments were conducted while selecting one kind of a compatible agent among cisplatin, 5-FU, irinotecane, adriamycin, etoposide, mitomycin, mitoxantrone, bleomycin, vincristin and vindecin. The time schedules of the controls (no addition of medicines, addition of only the l-OHP and addition of only a compatible agent, and specified in the below items (1) to (4)) and of the compatible administration of the compatible agent and the l-OHP are shown in FIG. 10.
(1) No medicine was added (control).
(2) Only the l-OHP was added at a second day.
(3) A large amount of compatible agents were added at a first day ([…] of the cisplatin, 10 μg/ml of the 5-FU, 0.05 μg/ml of the adriamycin and 1 μg/ml of the etoposide, and for the comparison purpose, 0.05 μg/ml of the vincristin and 0.06 μg/ml of the vindecin). The adding amount of the irinotecano was fixed to 10 μg/ml, and the addition amount of the l-OHP was 5 μg/ml.
(4) A small amount of compatible agents were added at a first day (0.5 μg/ml of the cisplatin, 5 μg/ml of the 5-FU, 0.01 μg/ml of the adriamycin and 0.5 μg/ml of the etoposide, and for the comparison purpose, 0.01 μg/ml of the vincristin and 0.01 μg/ml of the vindecin). The adding amount of the irinotecane was fixed to 10 μg/ml, and the addition amount of the l-OHP was 1 μg/ml.
(5) The l-OHP and a large amount (the same as that of the above item (3) and so forth in the following items) of the compatible agents were simultaneously added at a first day.
(6) The l-OHP and a small amount (the same as that of the above item (4) and so forth in the following items) of the compatible agents were simultaneously added at a first day.
(7) The l-OHP was added at a first day and a large amount of the compatible agents were added at a second day.
(8) The l-OHP was added at a first day and a small amount of the compatible agents were added at a second day.
(9) The l-OHP was added at a first day and a large amount of the compatible agents were added at a third day.
(10) The l-OHP was added at a first day and a small amount of the compatible agents were added at a third day.
(11) The l-OHP was added at a first day and a large amount of the compatible agents were added at a fourth day.
(12) The l-OHP was added at a first day and a small amount of the compatible agents were added at a fourth day.
(13) A large amount of the compatible agents were added at a first day and the l-OHP was added at a second day.
(14) A small amount of the compatible agents were added at a first day and the l-OHP was added at a second day.
(15) A large amount of the compatible agents were added at a first day and the l-OHP was added at a third day.
(16) A small amount of the compatible agents were added at a first day and the l-OHP was added at a third day.

[1] = larger dosage of compatible agent (μg/ml: cisplatin 1, 5-FU 10, irinotecane 10, adriamycin 0.05, vincristin 0.05, vindecin 0.05, etoposide 1, bleomycin 10, mitoxantrone 0.1, mitomycine 1), l-OHP 1 μg/ml (5 μg/ml with irinotecane) added day 1
[2] = larger dosage of compatible agent (μg/ml: cisplatin 1, 5-FU 10, irinotecane 10, adriamycin 0.05, vincristin 0.05, vindecin 0.05, etoposide 1, bleomycin 10, mitoxantrone 0.1, mitomycine 1), l-OHP 1 μg/ml (5 μg/ml with irinotecane)
[3] = larger dosage of compatible agent added day 1 (μg/ml: cisplatin 1, 5-FU 10, irinotecane 10, adriamycin 0.05, vincristin 0.05, vindecin 0.05, etoposide 1, bleomycin 10, mitoxantrone 0.1, mitomycine 1), l-OHP 1 μg/ml (5 μg/ml with irinotecane)
[4] = smaller dosage of compatible agent (μg/ml: cisplatin 0.5, 5-FU 5, irinotecane 10, adriamycin 0.01, vincristin 0.01, vindecin 0.01, etoposide 0.5, bleomycin 1, mitoxantrone 0.05, mitomycine 0.5), l-OHP 1 μg/ml added day 1
[5] = smaller dosage of compatible agent (μg/ml: cisplatin 0.5, 5-FU 5, irinotecane 10, adriamycin 0.01, vincristin 0.01, vindecin 0.01, etoposide 0.5, bleomycin 1, mitoxantrone 0.05, mitomycine 0.5), l-OHP 1 μg/ml
[6] = smaller dosage of compatible agent added day 1 (μg/ml: cisplatin 0.5, 5-FU 5, irinotecane 10, adriamycin 0.01, vincristin 0.01, vindecin 0.01, etoposide 0.5, bleomycin 1, mitoxantrone 0.05, mitomycine 0.5), l-OHP 1 μg/ml

| Compound | compatible administration effect with l-OHP, summary in words | compatible administration effect with l-OHP, summary in words (listed as 6-FU) | Compatible Effects of l-OHP and Compatible Agent, Time Lag Administration, Addition Administration of Compatible Agent day 2 [1] | Compatible Effects of l-OHP and Compatible Agent, Time Lag Administration, Addition Administration of Compatible Agent day 3 [1] | Compatible Effects of l-OHP and Compatible Agent, Time Lag Administration, Addition Administration of Compatible Agent day 4 [1] | Compatible Effects of l-OHP and Compatible Agent, Simultaneous Administration [2] | Compatible Effects of l-OHP and Compatible Agent, Time Lag Administration, Addition Administration of l-OHP day 2 [3] | Compatible Effects of l-OHP and Compatible Agent, Time Lag Administration, Addition Administration of l-OHP day 3 [3] | Compatible Effects of l-OHP and Compatible Agent, Time Lag Administration, Addition Administration of l-OHP day 4 [3] | effect as % of the expected value (compatible efficiency) (simultaneous administration with l-OHP, which dosage gives which value is not given) | Compatible Effects of l-OHP and Compatible Agent, Time Lag Administration, Addition Administration of Compatible Agent day 2 [4] | Compatible Effects of l-OHP and Compatible Agent, Time Lag Administration, Addition Administration of Compatible Agent day 3 [4] | Compatible Effects of l-OHP and Compatible Agent, Time Lag Administration, Addition Administration of Compatible Agent day 4 [4] | Compatible Effects of l-OHP and Compatible Agent, Simultaneous Administration [5] | Compatible Effects of l-OHP and Compatible Agent, Time Lag Administration, Addition Administration of l-OHP day 2 [6] | Compatible Effects of l-OHP and Compatible Agent, Time Lag Administration, Addition Administration of l-OHP day 3 [6] | Compatible Effects of l-OHP and Compatible Agent, Time Lag Administration, Addition Administration of l-OHP day 4 [6] |
| --- | --- | --- | --- | --- | --- | --- | --- | --- | --- | --- | --- | --- | --- | --- | --- | --- | --- |
| O=c1[nH]cc(F)c(=O)[nH]1 [5-FU, 5-fluorouracil] | twice an expected value; also recorded: synergistic effects can be obtained in almost all the administration conditions | the additive effect or the synergistic effect regardless of the administration method and the dosage in almost all the cases | • (•: Synergistic Effect) | • (•: Synergistic Effect) | • (•: Synergistic Effect) | • (•: Synergistic Effect) | • (•: Synergistic Effect) | • (•: Synergistic Effect) | • (•: Synergistic Effect) | 180% and 150% | ◯ (◯: Additive Effect) | • (•: Synergistic Effect) | • (•: Synergistic Effect) | • (•: Synergistic Effect) | • (•: Synergistic Effect) | ◯ (◯: Additive Effect) | • (•: Synergistic Effect) |
| COc1cccc2c1C(=O)c1c(O)c3c(c(O)c1C2=O)C[C@@](O)(C(=O)CO)C[C@@H]3O[C@H]1C[C@H](N)[C@H](O)[C@H](C)O1 [adriamycin] | the additive effect or the synergistic effect regardless of the administration method and the dosage in almost all the cases; also recorded: synergistic effects can be obtained in almost all the combinations when the l-OHP is added later |  | Δ (Δ: Below Additive Effect) | ◯ (◯: Additive Effect) | ◯ (◯: Additive Effect) | ◯ (◯: Additive Effect) | ◯ (◯: Additive Effect) | • (•: Synergistic Effect) | • (•: Synergistic Effect) |  | Δ (Δ: Below Additive Effect) | • (•: Synergistic Effect) | ◯ (◯: Additive Effect) | ◯ (◯: Additive Effect) | • (•: Synergistic Effect) | ◯ (◯: Additive Effect) | • (•: Synergistic Effect) |
| COc1cc([C@@H]2c3cc4c(cc3[C@@H](O[C@@H]3O[C@@H]5CO[C@@H](C)O[C@H]5[C@H](O)[C@H]3O)[C@H]3COC(=O)[C@H]23)OCO4)cc(OC)c1O [etoposide] | the additive effect or the synergistic effect regardless of the administration method and the dosage in almost all the cases; also recorded: synergistic effects can be obtained in almost all the combinations when the l-OHP is added later |  | ◯ (◯: Additive Effect) | ◯ (◯: Additive Effect) | Δ (Δ: Below Additive Effect) | ◯ (◯: Additive Effect) | • (•: Synergistic Effect) | • (•: Synergistic Effect) | • (•: Synergistic Effect) |  | ◯ (◯: Additive Effect) | • (•: Synergistic Effect) | ◯ (◯: Additive Effect) | ◯ (◯: Additive Effect) | • (•: Synergistic Effect) | • (•: Synergistic Effect) | • (•: Synergistic Effect) |
